From US12083129B2, “Treatment of breast cancer using combination therapies comprising an ATP competitive AKT inhibitor, a CDK4/6 inhibitor, and fulvestrant” (Genentech, Inc., priority 2019, dated 2024)

Test system: breast cancer cell lines
Assay: single agent sensitivity of breast cancer cell lines
Assay type: cell-based
Details: FIG. 1A and 1B
Method: Cell lines were treated with agents described herein (e.g. ipatasertib, palbociclib, and fulvestrant). […] (See FIG. 1A and FIG. 1B). There was synergy between ipatasertib and palbociclib as show by the BLISS scores of FIGS. 2A, 2B, 2C, and 2D. […] The percent weight loss resulting from treatment is shown by FIGS. 8A and 8B.

Row | SMILES | single agent sensitivity of breast cancer cell lines
1 | CC(C)NC[C@@H](C(=O)N1CCN(c2ncnc3c2[C@H](C)C[C@H]3O)CC1)c1ccc(Cl)cc1 [ipatasertib, (S)-2-(4-chlorophenyl)-1-(4-((5R,7R)-7-hydroxy-5-methyl-6,7-dihydro-5H-cyclopenta[d]pyrimidin-4-yl)piperazin-1-yl)-3-(isopropylamino)propan-1-one] | differential single agent sensitivity
2 | CC(=O)c1c(C)c2cnc(Nc3ccc(N4CCNCC4)cn3)nc2n(C2CCCC2)c1=O [palbociclib, 6-acetyl-8-cyclopentyl-5-methyl-2-{[5-(piperazin-1-yl)pyridin-2-yl]amino}pyrido[2,3-d]pyrimidin-7(8H)-one] | differential single agent sensitivity
